Data reported in US12312347B2, “Azaindole derivative and use thereof as FGFR and C-Met inhibitor” (Wuxi Life Fountain Biotech Co., Ltd, priority 2018, dated 2025).
Structures can show the parent of a compound that is named as a salt.

How the values were obtained:
Assay type in all cases: biochemical
human FGFR4 = biological target: T1, human FGFR4 (Homo sapiens, UniProt P22455); test: 33P isotope-labeled kinase activity test, FGFR4; settings: ATP 100 μM
T1 construct: purchased Invitrogen P3054
Protocol: (§1) The inhibitory activities of the tested compounds on human FGFR1, FGFR4, and c-Met were evaluated by the IC50 values measured using ^33P isotope-labeled kinase activity test (Reaction Biology Corp).
(§2) Buffer condition: 20 mM Hepes (pH 7.5), 10 mM MgCl2, 1 mM EGTA, 0.02% Brij35, 0.02 mg/mL BSA, 0.1 mM Na3VO4, 2 mM DTT, 1% DMSO.
(§3) Test procedure: The test compounds were dissolved in DMSO at room temperature and formulated to be 10 mM solutions for later use. The substrates were dissolved in freshly prepared buffer, and kinases to be tested were added and mixed well. The test compounds dissolved in DMSO were added to the above mixed reaction solutions by acoustic technique (Echo 550). The concentration of the compound in reaction solution was 1 μM, 0.25 μM, 0.156 μM, 3.91 nM, 0.977 nM, 0.244 nM, 0.061 nM, 0.0153 nM, 0.00381 nM or 10 μM, 2.50 μM, 0.62 μM, 0.156 μM, 39.1 nM, 9.8 nM, 2.4 nM, 0.61 nM, 0.15 nM, 0.038 nM. After incubation for 15 min, ^33P-ATP (activity 0.01 μCi/μL, corresponding concentrations are listed in Table 1) was added to start the reaction. Supplier item number, batch number, as well as the concentration information in the reaction solution of FGFR1, FGFR4, c-Met and substrates thereof are listed in Table 1. […] The kinase activity data are expressed by comparison between the kinase activity in the test compound group and the kinase activity in the blank group (containing DMSO only). IC50 values were obtained by curve fitting with Prism4 software (GraphPad).

human FGFR1 = biological target: T2, human FGFR1 (Homo sapiens, UniProt P11362); test: 33P isotope-labeled kinase activity test, FGFR1; settings: ATP 5 μM
T2 construct: purchased Invitrogen PV3146
Protocol: as §1, §2
as §3, with “The concentration of the compound in reaction solution was 1 μM, 0.25 μM, 0.156 μM, 3.91 nM, 0.977 nM, 0.244 nM, 0.061 nM, 0.0153 nM, 0.00381 nM or 10 μM, 2.50 μM, 0.62 μM, 0.156 μM, 39.1 nM, 9.8 nM, 2.4 nM, 0.61 nM, 0.15 nM, 0.038 nM.” left out

human c-Met = biological target: T3, human c-Met (Homo sapiens, UniProt P08581); test: 33P isotope-labeled kinase activity test, c-Met; settings: ATP 10 μM
T3 construct: purchased Invitrogen PV3143
Protocol: as §1, §2, §3

T2 sequence (P11362 22-822): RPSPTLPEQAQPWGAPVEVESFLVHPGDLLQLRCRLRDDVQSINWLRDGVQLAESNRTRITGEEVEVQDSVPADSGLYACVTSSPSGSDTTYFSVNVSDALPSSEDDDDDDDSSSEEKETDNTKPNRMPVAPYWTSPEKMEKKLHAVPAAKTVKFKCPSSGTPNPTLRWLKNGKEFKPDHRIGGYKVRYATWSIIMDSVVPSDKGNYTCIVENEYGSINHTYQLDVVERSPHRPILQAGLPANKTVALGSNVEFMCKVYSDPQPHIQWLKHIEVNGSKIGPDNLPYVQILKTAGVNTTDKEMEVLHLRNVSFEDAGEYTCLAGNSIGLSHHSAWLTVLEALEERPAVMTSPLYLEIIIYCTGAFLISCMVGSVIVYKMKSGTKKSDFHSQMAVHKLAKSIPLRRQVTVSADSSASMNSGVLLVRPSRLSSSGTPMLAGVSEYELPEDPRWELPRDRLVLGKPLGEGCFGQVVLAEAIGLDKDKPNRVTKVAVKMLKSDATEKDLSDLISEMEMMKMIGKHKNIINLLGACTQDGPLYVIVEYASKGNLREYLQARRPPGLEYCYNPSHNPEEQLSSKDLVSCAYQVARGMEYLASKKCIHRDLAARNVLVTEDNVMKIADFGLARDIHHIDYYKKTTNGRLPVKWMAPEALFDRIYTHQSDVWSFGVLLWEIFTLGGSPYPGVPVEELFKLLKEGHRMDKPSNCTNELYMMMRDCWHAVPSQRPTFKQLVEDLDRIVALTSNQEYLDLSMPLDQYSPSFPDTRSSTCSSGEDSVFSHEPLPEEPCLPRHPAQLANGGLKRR
T3 sequence (P08581 25-1390): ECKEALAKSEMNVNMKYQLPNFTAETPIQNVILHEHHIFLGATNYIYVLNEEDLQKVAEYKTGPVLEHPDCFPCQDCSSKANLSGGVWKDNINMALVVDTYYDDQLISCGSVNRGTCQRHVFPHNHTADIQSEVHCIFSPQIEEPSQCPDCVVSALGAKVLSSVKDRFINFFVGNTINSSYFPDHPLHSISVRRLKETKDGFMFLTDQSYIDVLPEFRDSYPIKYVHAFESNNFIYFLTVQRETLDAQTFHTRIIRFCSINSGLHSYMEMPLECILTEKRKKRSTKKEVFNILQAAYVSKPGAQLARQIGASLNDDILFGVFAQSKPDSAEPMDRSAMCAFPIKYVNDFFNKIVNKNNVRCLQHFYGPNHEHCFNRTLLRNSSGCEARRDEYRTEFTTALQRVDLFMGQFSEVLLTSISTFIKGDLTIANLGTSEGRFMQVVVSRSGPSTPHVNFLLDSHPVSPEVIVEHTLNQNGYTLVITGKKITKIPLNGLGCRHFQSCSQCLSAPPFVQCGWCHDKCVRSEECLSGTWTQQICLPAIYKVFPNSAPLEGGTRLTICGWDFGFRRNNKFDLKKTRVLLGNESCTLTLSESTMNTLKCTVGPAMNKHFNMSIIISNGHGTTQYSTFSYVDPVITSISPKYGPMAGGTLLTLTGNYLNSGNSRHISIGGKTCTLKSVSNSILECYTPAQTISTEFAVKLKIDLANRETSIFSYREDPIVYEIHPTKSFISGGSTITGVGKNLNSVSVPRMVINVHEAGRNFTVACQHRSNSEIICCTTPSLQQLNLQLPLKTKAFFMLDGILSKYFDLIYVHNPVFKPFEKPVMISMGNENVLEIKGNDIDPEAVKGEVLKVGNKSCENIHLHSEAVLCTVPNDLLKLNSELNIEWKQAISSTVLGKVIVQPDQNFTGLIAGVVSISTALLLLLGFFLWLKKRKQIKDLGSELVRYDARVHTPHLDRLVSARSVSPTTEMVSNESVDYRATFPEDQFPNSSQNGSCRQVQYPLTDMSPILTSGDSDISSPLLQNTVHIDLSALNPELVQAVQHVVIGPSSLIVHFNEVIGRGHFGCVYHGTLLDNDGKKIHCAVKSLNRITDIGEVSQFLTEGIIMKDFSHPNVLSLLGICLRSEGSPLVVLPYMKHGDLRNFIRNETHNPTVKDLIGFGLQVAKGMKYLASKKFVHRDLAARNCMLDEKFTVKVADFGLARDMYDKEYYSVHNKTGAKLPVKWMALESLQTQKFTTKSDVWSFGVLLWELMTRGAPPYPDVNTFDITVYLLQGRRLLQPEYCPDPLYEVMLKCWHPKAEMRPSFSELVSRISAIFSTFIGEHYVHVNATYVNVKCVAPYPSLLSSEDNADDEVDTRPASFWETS
T1 sequence (P22455 22-802): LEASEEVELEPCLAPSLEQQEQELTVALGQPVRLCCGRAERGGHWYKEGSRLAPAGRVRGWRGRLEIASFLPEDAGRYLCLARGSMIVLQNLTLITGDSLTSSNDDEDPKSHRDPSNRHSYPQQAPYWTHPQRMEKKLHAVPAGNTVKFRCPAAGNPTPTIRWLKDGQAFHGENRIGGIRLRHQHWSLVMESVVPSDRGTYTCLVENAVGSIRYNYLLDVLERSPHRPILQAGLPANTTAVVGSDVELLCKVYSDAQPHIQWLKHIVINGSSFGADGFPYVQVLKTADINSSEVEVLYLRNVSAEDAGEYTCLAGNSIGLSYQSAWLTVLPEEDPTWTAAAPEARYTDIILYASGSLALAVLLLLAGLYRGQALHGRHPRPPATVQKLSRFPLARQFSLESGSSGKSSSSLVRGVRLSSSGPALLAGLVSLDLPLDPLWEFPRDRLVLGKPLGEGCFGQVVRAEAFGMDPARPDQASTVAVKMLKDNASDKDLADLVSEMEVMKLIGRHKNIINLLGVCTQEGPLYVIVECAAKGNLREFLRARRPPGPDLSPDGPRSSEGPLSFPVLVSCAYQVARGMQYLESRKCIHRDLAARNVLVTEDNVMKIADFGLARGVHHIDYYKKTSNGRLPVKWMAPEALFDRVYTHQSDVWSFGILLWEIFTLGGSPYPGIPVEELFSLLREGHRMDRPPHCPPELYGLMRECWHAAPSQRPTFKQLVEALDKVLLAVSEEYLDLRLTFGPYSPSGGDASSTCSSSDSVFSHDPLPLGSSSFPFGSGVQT

| Compound | IC50 (human FGFR4) [nM] | IC50 (human FGFR1) [nM] | IC50 (human c-Met) [nM] |
| --- | --- | --- | --- |
| COc1cc(OC)c(F)c(Cc2c[nH]c3ncc(-c4cnn(CCO)c4)nc23)c1F [Trifluoroacetate salt of embodiment 8] | 20.7 | 0.43 | 496 |
| CCN1CCC(n2cc(-c3cnc4[nH]cc(Cc5c(F)c(OC)cc(OC)c5F)c4c3)c(C#N)n2)CC1 [Hydrochloride of embodiment 42] | 10.2 | 1.4 | 7.1 |
| CCN1CCC(C#N)(c2cccc(-c3cnc4[nH]cc(Cc5c(F)c(OC)cc(OC)c5F)c4c3)c2)CC1 [Trifluoroacetate salt of embodiment 60] | 33.4 | 2.2 | 320 |
| COc1cc(OC)c(F)c(Cc2c[nH]c3ncc(-c4ccc5c(c4)NC(=O)C54CCNCC4)cc23)c1F [Trifluoroacetate salt of embodiment 54] | 58.5 | 2.7 | 16.5 |
| COc1cc(OC)c(F)c(Cc2c[nH]c3ncc(-c4cnn(C5CCN(C(C)C)CC5)c4)cc23)c1F [Trifluoroacetate salt of embodiment 14] | 27.5 | 1.34 | 14 |
| COc1cc(OC)c(F)c(Cc2c[nH]c3ncc(-c4cnn(CC5CNC5)c4)cc23)c1F [Trifluoroacetate salt of embodiment 29] | 24.6 | 1.9 | 35.6 |
| COc1cc(OC)c(F)c(CC2=CN=C3N=CC(c4cnn(CCN5CCOCC5)c4)=CC23)c1F (stereo not drawn) [Trifluoroacetate salt of embodiment 21] | 25.2 | 2 | 55.9 |
| COc1cc(OC)c(F)c(Cc2c[nH]c3ncc(-c4cnn(C5CN(S(C)(=O)=O)C5)c4)cc23)c1F [Trifluoroacetate salt of embodiment 23] | 43.9 | 4.85 | 21 |
| CCN1CCC(C#N)(c2ccc(-c3cnc4[nH]cc(Cc5c(F)c(OC)cc(OC)c5F)c4c3)cc2)CC1 [Trifluoroacetate salt of embodiment 58] | 23.5 | 1.2 | 162 |
| COc1cc(OC)c(F)c(Cc2c[nH]c3ncc(-c4c(C)nn(CCO)c4C)cc23)c1F [Hydrochloride of embodiment 34] | 126 | 8.9 | 86.7 |
| CCN1CCC2(CC1)C(=O)Nc1cc(-c3cnc4[nH]cc(Cc5c(F)c(OC)cc(OC)c5F)c4c3)ccc12 [Trifluoroacetate salt of embodiment 55] | 44.9 | 2.2 | 22.8 |
| COc1cc(OC)c(F)c(Cc2c[nH]c3ncc(-c4cccc(C5(C#N)CCNCC5)c4)cc23)c1F [Trifluoroacetate salt of embodiment 59] | 14.7 | 0.8 | 127 |
| COc1ccc(Cl)c(Cc2c[nH]c3ncc(-c4cnn(C5CCNCC5)c4)nc23)c1Cl [Embodiment 7] | > 10000 | 85.9 | 41.5 |
| COc1cc(OC)c(F)c(Cc2c[nH]c3ncc(-c4cnn(C5CCN(CCO)CC5)c4)cc23)c1F [Embodiment 16] | 16.1 | 0.73 | 10.5 |
| COc1cc(OC)c(F)c(Cc2c[nH]c3ncc(-c4cnn(C5CCNCC5)c4)cc23)c1F [Embodiment 9] | 18.3 | 0.8 | 11.3 |
| COc1cc(OC)c(F)c(Cc2c[nH]c3ncc(-c4cnn(CCN(C)C)c4)cc23)c1F [Hydrochloride of embodiment 28] | 20.2 | 0.55 | 25.9 |
| COc1cc(OC)c(F)c(Cc2c[nH]c3ncc(-c4ccc(C5(C#N)CCNCC5)cc4)cc23)c1F [Hydrochloride of embodiment 57] | 21.4 | 1.1 | 49.4 |
| COc1ccc(F)c(Cc2c[nH]c3ncc(-c4cnn(C5CCNCC5)c4)cc23)c1F [Trifluoroacetate salt of embodiment 19] | 262 | 13.7 | 5.7 |
| COc1cc(OC)c(F)c(Cc2c[nH]c3ncc(-c4ccc5c(c4)NC(=O)C54CCN(C)CC4)cc23)c1F [Trifluoroacetate salt of embodiment 56] | 53.2 | 1.9 | 7.8 |
| CCN1CCC(n2cc(-c3cnc4[nH]cc(Cc5c(F)ccc(OC)c5F)c4c3)c(C)n2)CC1 [Trifluoroacetate salt of embodiment 39] | 752 | 29 | 24.5 |

Compounds with a lower IC50 (human FGFR4), results first:

| IC50 (human FGFR4) [nM] | IC50 (human FGFR1) [nM] | IC50 (human c-Met) [nM] | Compound |
| --- | --- | --- | --- |
| 4.5 | 0.7 | 243 | COc1cc(OC)c(F)c(Cc2c[nH]c3ncc(-c4cncc(C5(C#N)CCNCC5)c4)cc23)c1F [Trifluoroacetate salt of embodiment 61] |
| 9 | 0.04 | 7.62 | COc1cc(OC)c(F)c(Cc2c[nH]c3ncc(-c4cnn(C5CCN(C)CC5)c4)cc23)c1F [Trifluoroacetate salt of embodiment 13] |
| 5 | 0.5 | 31.4 | COCCNCCn1cc(-c2cnc3[nH]cc(Cc4c(F)c(OC)cc(OC)c4F)c3c2)cn1 [Hydrochloride of embodiment 70] |
| 2.5 | 0.6 | 32.4 | COc1cc(OC)c(F)c(Cc2c[nH]c3ncc(-c4cnn(CC(O)CO)c4)cc23)c1F (stereo not drawn) [Hydrochloride of embodiment 73] |
| 2.9 | 0.32 | 107 | CCN1CCc2ncc(-c3cnc4[nH]cc(Cc5c(F)c(OC)cc(OC)c5F)c4c3)cc2C1 [Trifluoroacetate salt of embodiment 53] |
| 9.9 | 0.9 | 6.9 | COc1cc(OC)c(F)c(Cc2c[nH]c3ncc(-c4cnn(C5CCC(O)CC5)c4)cc23)c1F (stereo not drawn) [Trifluoroacetate salt of embodiment 31] |
| 4.4 | 0.12 | 136 | COc1cc(OC)c(F)c(Cc2c[nH]c3ncc(-c4cnc5c(c4)CNC5)cc23)c1F [Trifluoroacetate salt of embodiment 50] |
| 3 | 0.27 | 84.1 | CCN1Cc2cc(-c3cnc4[nH]cc(Cc5c(F)c(OC)cc(OC)c5F)c4c3)cnc2C1 [Trifluoroacetate salt of embodiment 51] |
| 9 | 0.5 | 28 | COc1cc(OC)c(F)c(Cc2c[nH]c3ncc(-c4cnn(CC(C)(C)O)c4)cc23)c1F [Trifluoroacetate salt of embodiment 66] |
| 2.9 | 0.42 | 8.9 | COc1cc(OC)c(F)c(Cc2c[nH]c3ncc(-c4cnn(CCO)c4)cc23)c1F [Hydrochloride of embodiment 46] |
| 4.9 | 0.4 | 32.8 | COc1cc(OC)c(F)c(Cc2c[nH]c3ncc(-c4cnn(CC(O)CNC(C)C)c4)cc23)c1F (stereo not drawn) [Hydrochloride of embodiment 71] |
| 8.4 | 0.6 | 35.3 | CCN(CC)CCn1cc(-c2cnc3[nH]cc(Cc4c(F)c(OC)cc(OC)c4F)c3c2)cn1 [Hydrochloride of embodiment 69] |
